Source: patent US10106757B2, “Ionic liquid, lubricant, and magnetic recording medium” (DEXERIALS CORPORATION, priority 2016, dated 2018)

Experiments:
[1] = in acetonitrile; cited from earlier work
[2] = Thermal stability by TG/DTA measurement; format: physicochemical; details: for Weight reduction temperatures higher than / thermal stability improved compared with Z-DOL: compared with Z-DOL (Comparative Example 5C); for Weight reduction temperatures higher than / thermal stability improved compared with Z-TETRAOL: compared with Z-TETRAOL (Comparative Example 6C); for Weight reduction temperature 5% / Weight reduction temperature 10% / Weight reduction temperature 20%: TG/DTA, 30-600° C., 10° C./min, air 200 mL/min
[3] = Solubility test in hydrocarbon-based solvent n-hexane; format: physicochemical; details: 25° C., 0.5 parts by mass added to 100 parts, ultrasonic 5 minutes, left 1 day, visually observed
Protocol: (§1) To a predetermined amount of Vertrel XF or n-hexane, the ionic liquid, Z-DOL, or Z-TETRAOL was added. Ultrasonic waves were applied to the resultant mixture for 5 minutes, followed by leaving the mixture to stand for 1 day. The solubility was visually observed.
In case of n-hexane, similarly, 0.5 parts by mass of the ionic liquid, Z-DOL, or Z-TETRAOL was added to 100 parts by mass of n-hexane at 25° C. After applying ultrasonic waves to the resultant for 5 minutes, the resultant was left to stand for 1 day. Thereafter, the solubility was visually observed and evaluated based on the following evaluation criteria.
[Evaluation Criteria (Hydrocarbon-Based Solvent)]
• 0.5% by mass or greater:
Soluble with addition of 0.5 parts by mass • Less than 0.5% by mass:
Insoluble with addition of 0.5 parts by mass
(§2) Note that, the solubility was visually observed, and it was judged as soluble when it was transparent. Moreover, it was judged as not soluble (insoluble) when it was opaque or insoluble components were observed.

[4] = Solubility test in fluorine-based solvent Vertrel XF; format: physicochemical; details: 25° C., 0.2 parts by mass added to 100 parts, ultrasonic 5 minutes, left 1 day, visually observed
Protocol: as §1
Specifically, 0.2 parts by mass of the ionic liquid, Z-DOL, or Z-TETRAOL was added to 100 parts by mass of Vertrel XF (25° C.). After applying ultrasonic waves to the resultant for 5 minutes, the resultant was left to stand for 1 day. Thereafter, the solubility was visually observed and evaluated based on the following evaluation criteria.
[Evaluation Criteria (Fluorine-Based Solvent)]
• 0.2% by mass or greater:
Soluble with addition of 0.2 parts by mass • Less than 0.2% by mass:
Insoluble with addition of 0.2 parts by mass
as §2

O=S(=O)(C(S(=O)(=O)C(F)(F)F)S(=O)(=O)C(F)(F)F)C(F)(F)F [(CF3SO2)3CH]
pKa [1]: −3.7

CCCCCCCCCCCCn1cc[n+](CCCCCCCCCCCC)c1CCCCCCCCCCC.O=S(=O)([N-]S(=O)(=O)C(F)(F)C(F)(F)C(F)(F)C(F)(F)F)C(F)(F)C(F)(F)C(F)(F)C(F)(F)F
Weight reduction temperatures higher than / thermal stability improved compared with Z-DOL [2]: ≥ 170 °C
Weight reduction temperatures higher than / thermal stability improved compared with Z-TETRAOL [2]: ≥ 90 °C

CCCCCCCCCCCCCCCCCCn1cc[n+](CCCCCCCCCCCCCCCCCC)c1CCCCCCCCCCCCCCCCC.O=S(=O)([N-]S(=O)(=O)C(F)(F)C(F)(F)C(F)(F)C(F)(F)F)C(F)(F)C(F)(F)C(F)(F)C(F)(F)F
Weight reduction temperatures higher than / thermal stability improved compared with Z-DOL [2]: ≥ 140 °C
Weight reduction temperatures higher than / thermal stability improved compared with Z-TETRAOL [2]: ≥ 60 °C

CCCCCCCCCCCCCCCCCCn1cc[n+](CCCCCCCCCCCCCCCCCC)c1CCCCCCCCCCCCCCCCC.O=S(=O)([N-]S(=O)(=O)C(F)(F)C(F)(F)C(F)(F)C(F)(F)F)C(F)(F)C(F)(F)C(F)(F)C(F)(F)F [Ex. 4A, bis(nonafluorobutanesulfonyl)imide-1,3-dioctadecyl-2-heptadecylimidazolium]
Solubility n-hexane [3]: ≥ 0.5% by mass
Solubility n-hexane ([3]; listed as Example 4A): ≥ 0.5 % by mass
Solubility Vertrel XF [4]: < 0.2% by mass
Solubility Vertrel XF ([4]; listed as Example 4A): less than 0.2 % by mass
Weight reduction temperature 5% [2]: 300.1 °C
Weight reduction temperature 10% [2]: 337.3 °C
Weight reduction temperature 20% [2]: 385.8 °C

CCCCCCCCCCCCn1cc[n+](CCCCCCCCCCCC)c1CCCCCCCCCCC.O=S(=O)([N-]S(=O)(=O)C(F)(F)C(F)(F)C(F)(F)C(F)(F)F)C(F)(F)C(F)(F)C(F)(F)C(F)(F)F [Ex. 2A, bis(nonafluorobutanesulfonyl)imide-1,3-didodecyl-2-undecylimidazolium]
Solubility n-hexane [3]: ≥ 0.5% by mass
Solubility n-hexane ([3]; listed as Example 2A): ≥ 0.5 % by mass
Solubility Vertrel XF [4]: ≥ 0.2% by mass
Solubility Vertrel XF ([4]; listed as Example 2A): ≥ 0.2 % by mass
Weight reduction temperature 5% [2]: 335.7 °C
Weight reduction temperature 10% [2]: 368.9 °C
Weight reduction temperature 20% [2]: 395.7 °C

nonafluorobutanesulfonic acid-1,3-didodecyl-2-undecylimidazolium
Weight reduction temperature 5% [2]: 287.9 °C
Weight reduction temperature 10% [2]: 331.8 °C
Weight reduction temperature 20% [2]: 378.4 °C
Weight reduction temperatures higher than / thermal stability improved compared with Z-DOL [2]: ≥ 130 °C
Weight reduction temperatures higher than / thermal stability improved compared with Z-TETRAOL [2]: ≥ 40 °C

nonafluorobutanesulfonic acid-1,3-dioctadecyl-2-heptadecylimidazolium
Weight reduction temperature 5% [2]: 279.7 °C
Weight reduction temperature 10% [2]: 310.9 °C
Weight reduction temperature 20% [2]: 361.9 °C
Weight reduction temperatures higher than / thermal stability improved compared with Z-DOL [2]: ≥ 110 °C
Weight reduction temperatures higher than / thermal stability improved compared with Z-TETRAOL [2]: ≥ 40 °C

CCCCCCCCCCCCCCCCCC[n+]1ccn(CCCC)c1.O=S1(=O)[N-]S(=O)(=O)C(F)(F)C(F)(F)C1(F)F [Comp. Ex. 2A, hexafluorocyclopropane-1,3-bis(sulfonyl)imide-1-butyl-3-n-octadecylimidazolium, reference compound]
Solubility n-hexane [3]: < 0.5% by mass
Solubility Vertrel XF [4]: < 0.2% by mass
